In the NIST ThermoML archive (doi:10.1016/j.jct.2016.03.026):
Numbers after ± are expanded uncertainties.

Experiment: xn = mol fraction of the nth substance listed
Settings: 263.15 K, Fluid (supercritical or subcritical phases), Vibrating tube method, x1 = 0.97

SMILES: O=C=O [carbon dioxide] + CO
- mass density (12100 kPa): 1025.98 ± 0.8 kg/m3
- mass density (12125 kPa): 1026.07 ± 0.8 kg/m3
- mass density (12150 kPa): 1026.15 ± 0.8 kg/m3
- mass density (12175 kPa): 1026.31 ± 0.8 kg/m3
- mass density (12200 kPa): 1026.39 ± 0.8 kg/m3
- mass density (12225 kPa): 1026.47 ± 0.8 kg/m3
- mass density (12250 kPa): 1026.56 ± 0.8 kg/m3
- mass density (12275 kPa): 1026.64 ± 0.8 kg/m3
- mass density (12300 kPa): 1026.72 ± 0.8 kg/m3
- mass density (12325 kPa): 1026.88 ± 0.8 kg/m3
- mass density (12350 kPa): 1026.96 ± 0.8 kg/m3
- mass density (12375 kPa): 1027.05 ± 0.8 kg/m3
- mass density (12400 kPa): 1027.13 ± 0.8 kg/m3
- mass density (12425 kPa): 1027.21 ± 0.8 kg/m3
- mass density (12450 kPa): 1027.29 ± 0.8 kg/m3
- mass density (12475 kPa): 1027.38 ± 0.8 kg/m3
- mass density (12500 kPa): 1027.53 ± 0.8 kg/m3
- mass density (12525 kPa): 1027.62 ± 0.8 kg/m3
- mass density (12550 kPa): 1027.7 ± 0.8 kg/m3
- mass density (12575 kPa): 1027.78 ± 0.8 kg/m3
- mass density (12600 kPa): 1027.86 ± 0.8 kg/m3
- mass density (12625 kPa): 1027.96 ± 0.8 kg/m3
- mass density (12650 kPa): 1028.09 ± 0.8 kg/m3
- mass density (12675 kPa): 1028.19 ± 0.8 kg/m3
- mass density (12700 kPa): 1028.27 ± 0.8 kg/m3
- mass density (12725 kPa): 1028.35 ± 0.8 kg/m3
- mass density (12750 kPa): 1028.43 ± 0.8 kg/m3
- mass density (12775 kPa): 1028.51 ± 0.8 kg/m3
- mass density (12800 kPa): 1028.6 ± 0.8 kg/m3
- mass density (12825 kPa): 1028.76 ± 0.8 kg/m3
- mass density (12850 kPa): 1028.84 ± 0.8 kg/m3
- mass density (12875 kPa): 1028.92 ± 0.8 kg/m3
- mass density (12900 kPa): 1029 ± 0.8 kg/m3
- mass density (12925 kPa): 1029.08 ± 0.8 kg/m3
- mass density (12950 kPa): 1029.2 ± 0.8 kg/m3
- mass density (12975 kPa): 1029.3 ± 0.8 kg/m3
- mass density (13000 kPa): 1029.41 ± 0.8 kg/m3
- mass density (13025 kPa): 1029.49 ± 0.8 kg/m3
- mass density (13050 kPa): 1029.57 ± 0.8 kg/m3
- mass density (13075 kPa): 1029.65 ± 0.8 kg/m3
- mass density (13100 kPa): 1029.73 ± 0.8 kg/m3
- mass density (13125 kPa): 1029.88 ± 0.8 kg/m3
- mass density (13150 kPa): 1029.94 ± 0.8 kg/m3
- mass density (13175 kPa): 1030.06 ± 0.8 kg/m3
- mass density (13200 kPa): 1030.14 ± 0.8 kg/m3
- mass density (13225 kPa): 1030.22 ± 0.8 kg/m3
- mass density (13250 kPa): 1030.31 ± 0.8 kg/m3
- mass density (13275 kPa): 1030.39 ± 0.8 kg/m3
- mass density (13300 kPa): 1030.53 ± 0.8 kg/m3
- mass density (13325 kPa): 1030.63 ± 0.8 kg/m3
- mass density (13350 kPa): 1030.71 ± 0.8 kg/m3
- mass density (13375 kPa): 1030.8 ± 0.8 kg/m3
- mass density (13400 kPa): 1030.88 ± 0.8 kg/m3
- mass density (13425 kPa): 1030.96 ± 0.8 kg/m3
- mass density (13450 kPa): 1031.04 ± 0.8 kg/m3
- mass density (13475 kPa): 1031.14 ± 0.8 kg/m3
- mass density (13500 kPa): 1031.29 ± 0.8 kg/m3
- mass density (13525 kPa): 1031.37 ± 0.8 kg/m3
- mass density (13550 kPa): 1031.45 ± 0.8 kg/m3
- mass density (13575 kPa): 1031.53 ± 0.8 kg/m3
- mass density (13600 kPa): 1031.61 ± 0.8 kg/m3
